Results on 19 compounds are retold here after patent publication US8586579B2, “Anellated pyridine compounds” (Hoffmann-La Roche Inc., priority 2010, dated 2013).

For orientation: Ki means the equilibrium dissociation constant of an inhibitor or competing ligand from its target.

Experiment [1] has as its target human D3 receptor (Homo sapiens (Human), UniProt P35462). The experiment in a line: Radioligand binding assay, [3H]-spiperone, human D3 receptor. The note with it: membranes of HEK293 EBNA cells expressing human D3; 0.5 nM [3H]-spiperone. The protocol:
(§1) HEK293 EBNA cells were transiently transfected with expression plasmids encoding for the human D2 or D3 or for the human 5-HT2A receptor, respectively. The cells were harvested 48 h post-transfection, washed three times with cold PBS and stored at −80° C. prior to use. The pellet was suspended in cold 50 mM Tris-HCl buffer comprising 10 mM EDTA (pH 7.4) and was homogenized with a Polytron (Kinematica AG, Basel, Switzerland) for 20-30 sec at 12.000 rpm. After centrifugation at 48.000×g for 30 min at 4° C., the pellet was resuspended in cold 10 mM Tris-HCl buffer comprising 0.1 mM EDTA (pH 7.4), homogenized, and centrifuged as above. This pellet was further resuspended in a smaller volume of ice cold 10 mM Tris-HCl buffer comprising 0.1 mM EDTA (pH 7.4) and homogenized with a Polytron for 20-30 sec at 12.000 rpm. The protein content of this homogenate was determined with the Bio-Rad (Bradford) Protein Assay (Biorad Laboratories GmbH, München, Germany) according to the instructions of the manufacturer using gamma globulin as the standard. This homogenate was stored at −80° C. in aliquots and thawed immediately prior to use.
(§2) Aliquots of membrane preparations were thawed at RT, resuspended in assay buffer (D2, D3: 50 mM Tris-HCl, 120 mM NaCl, 5 mM MgCl2, 1 mM EDTA, 5 mM KCl, 1.5 mM CaCl2, pH=7.4; 5-HT2A: 50 mM Tris-HCl, 10 mM MgCl2, 1 mM EGTA, pH=7.4), homogenized with a Polytron for 20-30 sec at 12.000 rpm and adjusted to a final concentration of approximately 7.5 μg protein/well (D2, D3) and 15 μg protein/well (5-HT2A), respectively.
(§3) The binding affinity (Ki) of the compounds was determined using radioligand binding. Membranes were incubated in a total volume of 200 μl with a fixed concentration of radioligand (final concentration approximately 0.7 nM [^3H]-spiperone for D2, 0.5 nM [^3H]-spiperone for D3, and 1.1 nM [^3H]-ketanserin for 5-HT2A) and ten concentrations of test compound in ranging between 10 μM-0.1 nM for 1 h at RT. […] The nonspecific binding was determined with equally composed reaction mixtures in the presence of 10 μM unlabelled spiperone. Per well 45 μl of Microscint 40 (Perkin Elmer, Schwerzenbach, Switzerland) was added, plates for sealed, shaken for 20 min and counted for 3 min on a Topcount Microplate Scintillation Counter (Can berra Packard SA, Zürich, Switzerland) with quenching correction.
(§4) The CPM value for each duplicate of a concentration of competing compound was averaged (y1), then the % specific binding was calculated according to the equation (((y1−non-specific)/(total binding−non-specific))×100). Graphs were plotted with the % specific binding using XLfit, a curve fitting program that iteratively plots the data using Levenberg-Marquardt algorithm. The single site competition analysis equation used was y=A+((B−A)/(1+((x/C)D))), where y is the % specific binding, A is the minimum y, B is the maximum y, C is the IC50, x is the log 10 of the concentration of the competing compound and D is the slope of the curve (the Hill Coefficient). […] The affinity constant (K) was calculated using the Cheng-Prusoff equation Ki=(IC50/1+([L]/Kd), where [L] is the concentration of radioligand and Kd is the dissociation constant of the radioligand at the receptor as determined by the saturation isotherm.

Experiment [2] addresses human 5-HT2A receptor (Homo sapiens (Human), UniProt P28223). The experiment in a line: Radioligand binding assay, [3H]-ketanserin, human 5-HT2A receptor. As for the experimental part:
as §1, §2, §3, §4

In experiment [3] the target is human D2 receptor (Homo sapiens (Human), UniProt P14416). The experiment in a line: Radioligand binding assay, [3H]-spiperone, human D2 receptor. The note with it: membranes of HEK293 EBNA cells expressing human D2; 0.7 nM [3H]-spiperone. As for the experimental part: as §1, §2, §3
Sequence of human D2 receptor (P14416 whole entry): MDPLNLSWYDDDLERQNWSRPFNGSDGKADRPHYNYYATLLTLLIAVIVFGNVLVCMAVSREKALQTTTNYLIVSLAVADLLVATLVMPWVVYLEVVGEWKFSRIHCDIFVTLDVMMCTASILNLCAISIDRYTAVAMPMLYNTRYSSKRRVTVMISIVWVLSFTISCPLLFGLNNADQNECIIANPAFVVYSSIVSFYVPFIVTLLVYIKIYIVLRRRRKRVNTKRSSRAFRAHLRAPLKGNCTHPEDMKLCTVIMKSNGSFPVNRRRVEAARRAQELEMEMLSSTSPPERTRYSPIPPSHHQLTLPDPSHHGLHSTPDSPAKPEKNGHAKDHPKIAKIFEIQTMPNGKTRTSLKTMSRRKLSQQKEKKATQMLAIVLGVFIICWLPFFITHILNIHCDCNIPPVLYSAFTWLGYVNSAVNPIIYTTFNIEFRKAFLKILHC
as §4, with “algorithm.” for “algorithm. The single site competition analysis equation used was y=A+((B−A)/(1+((x/C)D))), where y is the % specific binding, A is the minimum y, B is the maximum y, C is the IC50, x is the log 10 of the concentration of the competing compound and D is the slope of the curve (the Hill Coefficient).”

Setting [4] is: membranes of HEK293 EBNA cells expressing human 5-HT2A, 1.1 nM [3H]-ketanserin.

Molecules are shown by their SMILES. Like-named read-outs stand apart in the source and are kept apart here.

Sequence of human D3 receptor (P35462 whole entry): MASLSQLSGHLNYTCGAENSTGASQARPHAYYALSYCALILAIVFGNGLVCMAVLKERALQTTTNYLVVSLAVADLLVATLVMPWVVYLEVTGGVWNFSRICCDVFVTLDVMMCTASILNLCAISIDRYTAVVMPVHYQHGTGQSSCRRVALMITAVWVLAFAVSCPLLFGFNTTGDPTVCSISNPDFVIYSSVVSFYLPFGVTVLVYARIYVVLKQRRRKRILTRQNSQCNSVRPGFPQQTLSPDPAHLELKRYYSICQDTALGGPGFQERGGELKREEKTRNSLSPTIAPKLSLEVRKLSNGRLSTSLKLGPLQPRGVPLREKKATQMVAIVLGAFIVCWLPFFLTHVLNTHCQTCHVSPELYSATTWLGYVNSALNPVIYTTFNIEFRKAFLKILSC
Sequence of human 5-HT2A receptor (P28223 whole entry): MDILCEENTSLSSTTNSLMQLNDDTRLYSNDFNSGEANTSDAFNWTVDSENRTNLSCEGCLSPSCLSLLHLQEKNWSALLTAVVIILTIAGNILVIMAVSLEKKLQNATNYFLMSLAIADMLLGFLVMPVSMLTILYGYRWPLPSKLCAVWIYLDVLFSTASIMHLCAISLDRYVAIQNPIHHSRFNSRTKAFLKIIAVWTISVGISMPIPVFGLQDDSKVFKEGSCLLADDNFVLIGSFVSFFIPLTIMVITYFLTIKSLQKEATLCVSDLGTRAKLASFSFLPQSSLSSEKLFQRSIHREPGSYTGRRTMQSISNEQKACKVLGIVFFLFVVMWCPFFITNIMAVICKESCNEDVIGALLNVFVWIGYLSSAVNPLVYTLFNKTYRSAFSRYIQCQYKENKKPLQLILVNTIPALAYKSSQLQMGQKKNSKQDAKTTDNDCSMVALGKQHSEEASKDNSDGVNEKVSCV

In the case of `CO[C@H]1CC[C@H](CC(=O)N[C@H]2CC[C@H](CCN3CCN(c4nccc5sccc45)CC3)CC2)C1` [Example 26, 2-((1S,3S)-3-Methoxy-cyclopentyl)-N-{trans-4-[2-(4-thieno[3,2-c]pyridin-4-yl-piperazin-1-yl)-ethyl]-cyclohexyl}-acetamide], the figures for the inhibition constant Ki in experiment [1], in experiment [2] (setting [4]) and in experiment [3] were 3 nM, 4.3 nM and 246 nM, respectively.

As to `CS(=O)(=O)N[C@H]1CC[C@H](CCN2CCN(c3nccc4occc34)CC2)CC1` [Example 14, N-{trans-4-[2-(4-Furo[3,2-c]pyridin-4-yl-piperazin-1-yl)-ethyl}-cyclohexyl]-methanesulfonamide], the Ki in experiment [1] came out at 34.1 nM; in experiment [2] (setting [4]), 6.8 nM; in experiment [3], 866 nM.

For `CO[C@H]1CC[C@H](CC(=O)N[C@H]2CC[C@H](CCN3CCN(c4nccc5occc45)CC3)CC2)CC1` [Example 9, N-{trans-4-[2-(4-Furo[3,2-c]pyridin-4-yl-piperazin-1-yl)-ethyl]-cyclohexyl}-2-(trans-4-methoxy-cyclohexyl)-acetamide], the Ki in experiment [1] was determined as 32.7 nM; in experiment [2] (setting [4]) it was 5.6 nM; in experiment [3], 1460 nM.

In the case of `O=C(CC1CCOCC1)N[C@H]1CC[C@H](CCN2CCN(c3nccc4occc34)CC2)CC1` [Example 10, N-{trans-4-[2-(4-Furo[3,2-c]pyridin-4-yl-piperazin-1-yl)-ethyl]-cyclohexyl}-2-(tetrahydro-pyran-4-yl)-acetamide], the Ki in experiment [1] amounted to 30.3 nM; in experiment [2] (setting [4]), 6.1 nM; in experiment [3] it was 683 nM.

Consider `O=C(CO)N[C@H]1CC[C@H](CCN2CCN(c3nccc4sccc34)CC2)CC1` [Example 27, 2-Hydroxy-N-{trans-4-[2-(4-thieno[3,2-c]pyridin-4-yl-piperazin-1-yl)-ethyl]-cyclohexyl}-acetamide], for which the Ki in experiment [1] amounted to 1.4 nM; in experiment [2] (setting [4]), 1.4 nM; in experiment [3], 218 nM.

With `CO[C@@H]1CC[C@@H](CC(=O)N[C@H]2CC[C@H](CCN3CCN(c4nccc5sccc45)CC3)CC2)C1` [Example 25, 2-((1R,3R)-3-Methoxy-cyclopentyl)-N-{trans-4-[2-(4-thieno[3,2-c]pyridin-4-yl-piperazin-1-yl)-ethyl]-cyclohexyl}-acetamide], the values for the Ki in experiment [1], in experiment [2] (setting [4]) and in experiment [3] were 2.7 nM, 4.9 nM and 234 nM, respectively.

Turning to `O=C(CC1CCOCC1)N[C@H]1CC[C@H](CCN2CCN(c3nccc4sccc34)CC2)CC1` [Example 23, 2-(Tetrahydro-pyran-4-yl)-N-{trans-4-[2-(4-thieno[3,2-c]pyridin-4-yl-piperazin-1-yl)-ethyl]-cyclohexyl}-acetamide], the Ki in experiment [1] came out at 2.7 nM; in experiment [2] (setting [4]), 3 nM; in experiment [3], 144 nM.

Consider `O=C(CO)N[C@H]1CC[C@H](CCN2CCN(c3nccc4occc34)CC2)CC1` [Example 7, N-{trans-4-[2-(4-Furo[3,2-c]pyridin-4-yl-piperazin-1-yl)-ethyl]-cyclohexyl}-2-hydroxy-acetamide], for which the Ki in experiment [1] came out at 43 nM; in experiment [2] (setting [4]), 5.6 nM; in experiment [3] it was 1360 nM.

`CCC(=O)N[C@H]1CC[C@H](CCN2CCN(c3nccc4occc34)CC2)CC1` [Example 4, N-{trans-4-[2-(4-Furo[3,2-c]pyridin-4-yl-piperazin-1-yl)-ethyl]-cyclohexyl}-propionamide]: the Ki turned out to be 11.8 nM in experiment [1], 6.5 nM in experiment [2] and 780 nM in experiment [3].

Consider `COCC(=O)N[C@H]1CC[C@H](CCN2CCN(c3nccc4occc34)CC2)CC1` [Example 8, N-{trans-4-[2-(4-Furo[3,2-c]pyridin-4-yl-piperazin-1-yl)-ethyl]-cyclohexyl}-2-methoxy-acetamide], for which the Ki amounted to 77.2 nM in experiment [1], 4.4 nM in experiment [2] (setting [4]) and 1160 nM in experiment [3].

`O=C(N[C@H]1CC[C@H](CCN2CCN(c3nccc4occc34)CC2)CC1)c1ccnc2ccccc12` [Example 29, Quinoline-4-carboxylic acid {trans-4-[2-(4-furo[3,2-c]pyridin-4-yl-piperazin-1-yl)-ethyl]-cyclohexyl}-amide]: the Ki is 23.2 nM in experiment [1], 5.3 nM in experiment [2] (setting [4]) and 461 nM in experiment [3].

With `CCS(=O)(=O)N[C@H]1CC[C@H](CCN2CCN(c3nccc4occc34)CC2)CC1` [Example 16, Ethanesulfonic acid {trans-4-[2-(4-furo[3,2-c]pyridin-4-yl-piperazin-1-yl)-ethyl]-cyclohexyl}-amide], the inhibition constant Ki in experiment [1] came to 30.6 nM; in experiment [2] (setting [4]), 8.5 nM; in experiment [3], 780 nM.

In the case of `CC(=O)N[C@H]1CC[C@H](CCN2CCN(c3nccc4sccc34)CC2)CC1` [Example 15, N-{trans-4-[2-(4-Thieno[3,2-c]pyridin-4-yl-piperazin-1-yl)-ethyl]-cyclohexyl}-acetamide], the Ki in experiment [1] was 1.9 nM; in experiment [2], 3.3 nM; in experiment [3], 119 nM.

For `O=C(N[C@H]1CC[C@H](CCN2CCN(c3nccc4occc34)CC2)CC1)C1CC1` [Example 13, Cyclopropanecarboxylic acid {trans-4-[2-(4-furo[3,2-c]pyridin-4-yl-piperazin-1-yl)-ethyl]-cyclohexyl}-amide], the inhibition constant Ki was found to be 21.8 nM in experiment [1], 4.4 nM in experiment [2] (setting [4]) and 261 nM in experiment [3].

On to `O=C(C[C@H]1CC[C@H](O)CC1)N[C@H]1CC[C@H](CCN2CCN(c3nccc4occc34)CC2)CC1` [Example 3, N-{trans-4-[2-(4-Furo[3,2-c]pyridin-4-yl-piperazin-1-yl)-ethyl]-cyclohexyl}-2-(trans-4-hydroxy-cyclohexyl)-acetamide], for which the Ki in experiment [1] worked out at 54.6 nM; in experiment [2] it was 8.8 nM; in experiment [3], 1540 nM.

`CCOCC(=O)N[C@H]1CC[C@H](CCN2CCN(c3nccc4occc34)CC2)CC1` [Example 12, 2-Ethoxy-N-{trans-4-[2-(4-furo[3,2-c]pyridin-4-yl-piperazin-1-yl)-ethyl]-cyclohexyl}-acetamide]: the Ki in experiment [1] came out at 150 nM; in experiment [2] (setting [4]), 7.4 nM; in experiment [3], 996 nM.

Take `CO[C@H]1CC[C@H](CC(=O)N[C@H]2CC[C@H](CCN3CCN(c4nccc5sccc45)CC3)CC2)CC1` [Example 20, 2-(trans-4-Methoxy-cyclohexyl)-N-{trans-4-[2-(4-thieno[3,2-c]pyridin-4-yl-piperazin-1-yl)-ethyl]-cyclohexyl}-acetamide]: the Ki worked out at 3 nM in experiment [1], 2.5 nM in experiment [2] (setting [4]) and 302 nM in experiment [3].

As for `O=C(C[C@H]1CC[C@H](O)CC1)N[C@H]1CC[C@H](CCN2CCN(c3nccc4sccc34)CC2)CC1` [Example 28, 2-(trans-4-Hydroxy-cyclohexyl)-N-{trans-4-[2-(4-thieno[3,2-c]pyridin-4-yl-piperazin-1-yl)-ethyl]-cyclohexyl}-acetamide], the Ki in experiment [1] stood at 6 nM; in experiment [2] (setting [4]), 4 nM; in experiment [3], 392 nM.

Consider `CN(C)S(=O)(=O)N[C@H]1CC[C@H](CCN2CCN(c3nccc4occc34)CC2)CC1` [Example 17, N′-(trans-4{[4-(furo[3,2-c]pyridin-4-yl)-piperazin-1-yl]-ethyl}cyclohexyl)-N,N-dimethylsulfamide], for which the Ki was 33 nM in experiment [1], 5.3 nM in experiment [2] (setting [4]) and 539 nM in experiment [3].
